Where two headings read alike, the source gives them in different places.
How the values were obtained:
NCI H2452 mesothelioma = test: MTT cellular proliferation assay, NCI H2452; assay type: cell-based; conditions: 72 h, 3 experiments
Description: (§1) The final concentration of the compounds was 0.39-50 μM. […] […] After this incubation, 0.01 mL of MTT was added to each well and the plates incubated for 2 h at 37° C. The cells were then solubilised by adding 0.1 mL of 10% SDS-50% isobutanol in 0.01 M HCl and the plates then read at 570 nm on a scanning multiwell spectrophotometer (Titertek Multiscan; Beckman Instruments Inc, California). MTT colour formation was directly proportional to the number of viable cells.
(§2) At the end of the incubation period, cell density was determined by the MTT assay (described above).

SK-Mel-28 melanoma cells = test: MTT cellular proliferation assay, SK-Mel-28; assay type: cell-based, human
M109 carcinoma cells [1] = test: 59Fe mobilisation from prelabelled M109 cells; assay type: cell-based, mouse; conditions: 3 h, control medium 8±1%
Description: (§3) The ability of the compound Dp44mT to inhibit the growth of M109 lung carcinoma cells in mice was assessed. Studies were performed using M109 carcinoma cells in culture to determine the effect of Dp44mT on mobilising ^59Fe from these cells (FIG. 11C) and inhibiting ^59Fe uptake from ^59Fe-Tf (FIG. 11D). As internal controls, cells were incubated with DFO and 311. The effect of compound concentration on increasing ^59Fe mobilisation from M109 cells was examined by labelling cells with ^59Fe-Tf (0.75 μM) for 3 h at 37° C. followed by washing and reincubation with the respective compounds (0.2-25 μM) for 3 h at 37° C. (FIG. 11C). […] In contrast, 311 increased cellular ^59Fe release from 8±1% (control medium) to […] at 5 μM (FIG. 11C). For Dp44mT ^59Fe release plateaued at 2 μM, resulting in the efflux of 48±2% of ^59Fe (FIG. 11C).

IMR-32 Neuroblastoma = test: MTT cellular proliferation assay, IMR-32; assay type: cell-based; conditions: 72 h, 1 experiment
Description: as §1, §2

M109 carcinoma cells [2] = test: 59Fe uptake from 59Fe-Tf by M109 cells; assay type: cell-based, mouse
Description: as §3
At 1 μM, 311 reduced ^59Fe uptake to 40±4% of the control. […] Dp44mT had similar activity to 311 up to a concentration of 5 μM, where it reduced ^59Fe uptake to 30±1% of the control (FIG. 11D).

H69AR lung cancer = test: MTT cellular proliferation assay, H69AR; assay type: cell-based; conditions: 0-50 μM, 72 h, 1 experiment
Description: as §1, §2

[3] = tested on: MCF-7 breast cancer cells; test: MTT cellular proliferation assay, MCF-7; assay type: cell-based, human
HEP G2 Hepatoma = test: MTT cellular proliferation assay, HEP G2; assay type: cell-based; conditions: 72 h, 1 experiment
Description: as §1, §2

DU 145 prostate cancer = test: MTT cellular proliferation assay, DU 145; assay type: cell-based; conditions: 72 h, 2 experiments
Description: as §1, §2

[4] = tested on: SK-N-MC neuroepithelioma cells; test: 59Fe mobilization from prelabelled SK-N-MC neuroepithelioma cells; assay type: cell-based, human; conditions: chelators 25 μM, 3 h at 37° C.; media alone released 5% (FIG. 11A)
Description: The effect of chelators on ^59Fe release from prelabelled cells was studied using standard procedures.^18 Cells were prelabelled with ^59Fe-transferrin (0.75 μM) for 3 h at 37° C. […] The overlying medium was then removed and placed into γ-counting tubes. The cells were removed from the petri dishes in 1 ml of BSS using a plastic spatula and transferred to a separate set of γ-counting tubes.
The ability of the compounds to mobilise ^59Fe from SK-N-MC neuroepithelioma cells was assessed after a 3 h labelling period with ^59Fe-Tf (0.75 μM) at 37° C. […]
DFO and 311 were used as internal standards.

MRC-5 fibroblasts = test: MTT cellular proliferation assay, MRC-5 fibroblasts; assay type: cell-based, human; conditions: Table 3, normal cells, 72 h, MTT, read-out: IC50 MRC-5 fibroblasts
Description: as §1
The MRC-5 cell type is a normal human lung fibroblast cell strain that is mortal and senesces after a number of passages in vitro. The SK-N-MC neuroepithelioma cell type is immortal.
Dp2mT served as a negative control.

Ndrg1 = Ndrg1 expression in MCF-7 cells (Western blotting); assay type: cell-based, human; conditions: 25 μM, 24 h, MCF-7 cells (FIG. 16)
Description: FIG. 16. […] The expression of Ndrg1 and β-actin protein levels were assessed by Western blotting.
MCF-7 cells were incubated for 24 h with a range of metal ion chelators. […] Dp2mT was used as a negative control, […]

[5] = tested on: SK-N-MC neuroepithelioma cells; test: MTT cellular proliferation assay, SK-N-MC; assay type: cell-based, human

With `CC(=O)N(O)CCCCCNC(=O)CCC(=O)N(O)CCCCCNC(=O)CCC(=O)N(O)CCCCCN` [DFO, desferrioxamine] the IC50 (NCI H2452 mesothelioma; Homo sapiens, NCI-H2452, 0-50 μM) was 32.3 µM, the IC50 (SK-Mel-28 melanoma cells; Homo sapiens, SK-MEL-28, 72 h, Table 3, mean ± SD) was 15 ± 7 µM and the “59Fe released from cells” value (M109 carcinoma cells [1]; 25 μM) was 12±1%. The IC50 (IMR-32 Neuroblastoma; Homo sapiens, IMR-32, 0-50 μM) was 9.38 µM, the “inhibition of 59Fe uptake” value (M109 carcinoma cells [2]; 0.2-25 μM (FIG. 11D)) was “little effect” and the IC50 (H69AR lung cancer; Homo sapiens, H69AR) was over 50 µM. It also gave an IC50 ([3]; Homo sapiens, MCF7, 72 h, Table 3, 72 h, MTT, mean ± SD, read-out: IC50 MCF-7 breast cancer) of 14 ± 9 µM, an IC50 ([3]; Homo sapiens, MCF7, values given in Example 8 text, read-out: IC50, anti-proliferative activity in MCF-7 cells) of 20 µM and an IC50 (HEP G2 Hepatoma; Homo sapiens, HepG2, 0-50 μM) of 18.7 µM. The IC50 (DU 145 prostate cancer; Homo sapiens, DU-145, 0-50 μM) was 15.8 µM, the “efflux/mobilisation of total cellular 59Fe” value [4] was 11% and the IC50 (MRC-5 fibroblasts; Homo sapiens, MRC5) was over 25 µM. The “up-regulation of Ndrg1” value (Ndrg1) was “no effect”, the IC50 ([5]; Homo sapiens, SK-N-MC, 72 h, Table 3, 0-25 μM, 72 h, MTT, mean ± SD, read-out: IC50 SK-N-MC neuroepithelioma) was 5 µM and the IC50 ([5]; Homo sapiens, SK-N-MC, 90 h, Table 2, MTT assay, 90 h incubation, Mean ± SD, 4 experiments, read-out: IC50 Values of Chelators) was over 50 µM.
For `CN(C)C(=S)NN=C(c1ccccn1)c1ccccn1` [Dp44mT, di-2-pyridylketone 4,4-dimethyl-3-thiosemicarbazone], the IC50 (NCI H2452 mesothelioma; 0-50 μM) was 0.01 µM, the IC50 (SK-Mel-28 melanoma cells; Table 3, 72 h, mean ± SD) was 0.06 ± 0.03 µM and the “efflux of 59Fe (plateau)” value (M109 carcinoma cells [1]; 2 μM) was 48±2%. The IC50 (IMR-32 Neuroblastoma; 0-50 μM) was 0.01 µM, the 59Fe uptake (M109 carcinoma cells [2]; 5 μM) was 30±1 % of the control and the IC50 (H69AR lung cancer) was 0.05 µM. For the same molecule, the IC50 ([3]; Table 3, 72 h, MTT, mean ± SD, read-out: IC50 MCF-7 breast cancer) was 0.06 ± 0.01 µM, the IC50 ([3]; values given in Example 8, read-out: IC50, anti-proliferative activity in MCF-7 cells) was 0.1 µM and the IC50 (HEP G2 Hepatoma; 0-50 μM) was 1.36 µM. The IC50 (DU 145 prostate cancer; 0-50 μM) was 0.06 µM, the “efflux/mobilisation of total cellular 59Fe” value [4] was 47% and the IC50 (MRC-5 fibroblasts) was over 25 µM. The “up-regulation of Ndrg1” value (Ndrg1) was “markedly increased” and the IC50 ([5]; Table 3, 0-25 μM, 72 h, MTT, mean ± SD, read-out: IC50 SK-N-MC neuroepithelioma) was 0.03 ± 0.01 µM.

— US20060252798A1, “Metal ion chelators and therapeutic use thereof” (priority 2003, published 2006)
